Data published in ChEMBL document CHEMBL4732126, “Design, synthesis, and biodistribution studies of new analogues of marine alkaloids: Potent in vitro and in vivo fungicidal agents against Candida spp” (Eur J Med Chem, 2021).
Converted amounts (≈) assume the structure as drawn. The source made the active and inactive calls. The rule behind the calls is not given here.

Key:
Candida albicans [1] = assay: Antifungal activity against Candida albicans isolate 11 assessed as reduction in fungal growth incubated for 48 hrs by broth microdilution method; type: functional
Candida albicans [2] = assay: Antifungal activity against Candida albicans isolate 9 assessed as reduction in fungal growth incubated for 48 hrs by broth microdilution method; type: functional
Candida albicans [3] = assay: Antifungal activity against Candida albicans isolate 6 assessed as reduction in fungal growth incubated for 48 hrs by broth microdilution method; type: functional
Candida albicans [4] = assay: Antifungal activity against Candida albicans isolate 10 assessed as reduction in fungal growth incubated for 48 hrs by broth microdilution method; type: functional
Candida albicans [5] = assay: Antifungal activity against Candida albicans isolate 12 assessed as reduction in fungal growth incubated for 48 hrs by broth microdilution method; type: functional
Candida tropicalis [6] = assay: Fungicidal activity against Candida tropicalis ATCC 28707 assessed as fungal killing incubated for 48 hrs followed by plating on SD agar plate; type: functional; settings: read-out: MFC99.9
Candida albicans [7] = assay: Antifungal activity against Candida albicans isolate 7 assessed as reduction in fungal growth incubated for 48 hrs by broth microdilution method; type: functional
Candida albicans [8] = assay: Antifungal activity against Candida albicans isolate 8 assessed as reduction in fungal growth incubated for 48 hrs by broth microdilution method; type: functional
Candida albicans [9] = assay: Antifungal activity against Candida albicans ATCC 18804 assessed as reduction in fungal growth incubated for 48 hrs by broth microdilution method; type: functional
Nakaseomyces glabratus [10] = assay: Antifungal activity against Candida glabrata ATCC 2001 assessed as reduction in fungal growth incubated for 48 hrs by broth microdilution method; type: functional
Candida albicans [11] = assay: Antifungal activity against Candida albicans ATCC 10231 assessed as reduction in fungal growth incubated for 48 hrs by broth microdilution method; type: functional
Candida tropicalis [12] = assay: Antifungal activity against Candida tropicalis ATCC 28707 assessed as reduction in fungal growth incubated for 48 hrs by broth microdilution method; type: functional
Candida albicans [13] = assay: Antifungal activity against Candida albicans isolate 13 assessed as reduction in fungal growth incubated for 48 hrs by broth microdilution method; type: functional
Pichia kudriavzevii [14] = assay: Antifungal activity against Candida krusei ATCC 34135 assessed as reduction in fungal growth incubated for 48 hrs by broth microdilution method; type: functional
Candida albicans [15] = assay: Antifungal activity against Candida albicans isolate 4 assessed as reduction in fungal growth incubated for 48 hrs by broth microdilution method; type: functional
Candida albicans [16] = assay: Fungicidal activity against Candida albicans ATCC 10231 assessed as fungal killing incubated for 48 hrs followed by plating on SD agar plate; type: functional; settings: read-out: MFC99.9
Pichia kudriavzevii [17] = assay: Fungicidal activity against Candida krusei ATCC 34135 assessed as fungal killing incubated for 48 hrs followed by plating on SD agar plate; type: functional; settings: read-out: MFC99.9
Candida albicans [18] = assay: Fungicidal activity against Candida albicans isolate 7 assessed as fungal killing incubated for 48 hrs followed by plating on SD agar plate; type: functional; settings: read-out: MFC99.9
Candida albicans [19] = assay: Fungicidal activity against Candida albicans ATCC 10231 assessed as reduction in fungal load at 125 ug/ml incubated for 48 hrs followed by inoculation on SD agar plate for 48 hrs by time-kill assay; type: functional, organism-based; settings: dose 125.0 µg/ml, time 96.0 hrs
Candida albicans [20] = assay: Antifungal activity against Candida albicans isolate 1 assessed as reduction in fungal growth incubated for 48 hrs by broth microdilution method; type: functional
Candida albicans [21] = assay: Fungicidal activity against Candida albicans isolate 11 assessed as fungal killing incubated for 48 hrs followed by plating on SD agar plate; type: functional; settings: read-out: MFC99.9
Candida albicans [22] = assay: Antifungal activity against Candida albicans isolate 5 assessed as reduction in fungal growth incubated for 48 hrs by broth microdilution method; type: functional
Candida albicans [23] = assay: Antifungal activity against Candida albicans ATCC 10231 assessed as inhibition of yeast to hypha morphological transition at 125 ug/ml measured upto 72 hrs by microscopic analysis; type: functional, organism-based; settings: dose 125.0 µg/ml, time hrs <=72
Candida albicans [24] = assay: Fungicidal activity against Candida albicans isolate 2 assessed as fungal killing incubated for 48 hrs followed by plating on SD agar plate; type: functional; settings: read-out: MFC99.9
Candida albicans [25] = assay: Fungicidal activity against Candida albicans isolate 4 assessed as fungal killing incubated for 48 hrs followed by plating on SD agar plate; type: functional; settings: read-out: MFC99.9
Candida albicans [26] = assay: Fungicidal activity against Candida albicans isolate 8 assessed as fungal killing incubated for 48 hrs followed by plating on SD agar plate; type: functional; settings: read-out: MFC99.9
Candida albicans [27] = assay: Fungicidal activity against Candida albicans ATCC 18804 assessed as fungal killing incubated for 48 hrs followed by plating on SD agar plate; type: functional; settings: read-out: MFC99.9
Candida albicans [28] = assay: Antifungal activity against Candida albicans isolate 2 assessed as reduction in fungal growth incubated for 48 hrs by broth microdilution method; type: functional
Nakaseomyces glabratus [29] = assay: Fungicidal activity against Candida glabrata ATCC 2001 assessed as fungal killing incubated for 48 hrs followed by plating on SD agar plate; type: functional; settings: read-out: MFC99.9
Candida albicans [30] = assay: Fungicidal activity against Candida albicans isolate 9 assessed as fungal killing incubated for 48 hrs followed by plating on SD agar plate; type: functional; settings: read-out: MFC99.9
Candida albicans [31] = assay: Fungicidal activity against Candida albicans isolate 10 assessed as fungal killing incubated for 48 hrs followed by plating on SD agar plate; type: functional; settings: read-out: MFC99.9
Candida albicans [32] = assay: Fungicidal activity against Candida albicans isolate 13 assessed as fungal killing incubated for 48 hrs followed by plating on SD agar plate; type: functional; settings: read-out: MFC99.9
Candida albicans [33] = assay: Fungicidal activity against Candida albicans isolate 12 assessed as fungal killing incubated for 48 hrs followed by plating on SD agar plate; type: functional; settings: read-out: MFC99.9
Candida albicans [34] = assay: Antifungal activity against Candida albicans isolate 3 assessed as reduction in fungal growth incubated for 48 hrs by broth microdilution method; type: functional
Candida albicans [35] = assay: Fungicidal activity against Candida albicans isolate 6 assessed as fungal killing incubated for 48 hrs followed by plating on SD agar plate; type: functional; settings: read-out: MFC99.9

| Compound | MIC (Candida albicans [1]) [µg/mL] | MIC (Candida albicans [2]) [µg/mL] | MIC (Candida albicans [3]) [µg/mL] | MIC (Candida albicans [4]) [µg/mL] | MIC (Candida albicans [5]) [µg/mL] | MFC (Candida tropicalis [6]) [µg/mL] | MIC (Candida albicans [7]) [µg/mL] | MIC (Candida albicans [8]) [µg/mL] | MIC (Candida albicans [9]) [µg/mL] | MIC (Nakaseomyces glabratus [10]) [µg/mL] | MIC (Candida albicans [11]) [µg/mL] | MIC (Candida tropicalis [12]) [µg/mL] | MIC (Candida albicans [13]) [µg/mL] | MIC (Pichia kudriavzevii [14]) [µg/mL] | MFC (Candida albicans [16]) [µg/mL] | MFC (Pichia kudriavzevii [17]) [µg/mL] | MFC (Candida albicans [18]) [µg/mL] | MFC (Candida albicans [21]) [µg/mL] | MFC (Candida albicans [27]) [µg/mL] | MFC (Nakaseomyces glabratus [29]) [µg/mL] | further results |
| --- | --- | --- | --- | --- | --- | --- | --- | --- | --- | --- | --- | --- | --- | --- | --- | --- | --- | --- | --- | --- | --- |
| [N-]=[N+]=NCCCCCCCCCCCCOCCCc1cccnc1 | > 500 | > 500 | > 500 | > 500 | > 500 | 160 (≈ 462 µM) | > 500 | > 500 | > 500 | > 500 | > 500 | 40 (≈ 115 µM) | > 500 | > 500 |  |  |  |  |  |  |  |
| CC(=O)N1CCN(c2ccc(OCC3COC(Cn4ccnc4)(c4ccc(Cl)cc4Cl)O3)cc2)CC1 (centres undefined) [KETOCONAZOLE] | 31.2 (≈ 58.8 µM) | 31.2 (≈ 58.8 µM) | 0.97 (≈ 1.83 µM) | 7.8 (≈ 14.7 µM) | 15.6 (≈ 29.4 µM) | 62.5 (≈ 118 µM) | 1.95 (≈ 3.67 µM) | 3.9 (≈ 7.34 µM) | 31.2 (≈ 58.8 µM) | 125 (≈ 235 µM) | 31.2 (≈ 58.8 µM) | 31.2 (≈ 58.8 µM) | 15.6 (≈ 29.4 µM) | 7.8 (≈ 14.7 µM) | 125 (≈ 235 µM) | 7.8 (≈ 14.7 µM) | 7.8 (≈ 14.7 µM) | 125 (≈ 235 µM) | 125 (≈ 235 µM) | > 500 | MIC (Candida albicans [15]): 31.2 µg/mL (≈ 58.8 µM); Activity (Candida albicans [19]): inactive; MIC (Candida albicans [20]): > 500 µg/mL; MIC (Candida albicans [22]): > 500 µg/mL; Activity (Candida albicans [23]): Active; MFC (Candida albicans [24]): > 500 µg/mL; MFC (Candida albicans [25]): 125 µg/mL (≈ 235 µM); MFC (Candida albicans [26]): 7.8 µg/mL (≈ 14.7 µM); MIC (Candida albicans [28]): 62.3 µg/mL (≈ 117 µM); MFC (Candida albicans [30]): 250 µg/mL (≈ 470 µM); MFC (Candida albicans [31]): 62.5 µg/mL (≈ 118 µM); MFC (Candida albicans [32]): 250 µg/mL (≈ 470 µM); MFC (Candida albicans [33]): 500 µg/mL (≈ 941 µM); MIC (Candida albicans [34]): > 500 µg/mL; MFC (Candida albicans [35]): 3.9 µg/mL (≈ 7.34 µM) |
| COC(=O)CCNCCCCCCCCCCCCOCCCc1cccnc1 | 250 (≈ 615 µM) | 250 (≈ 615 µM) | 250 (≈ 615 µM) | 250 (≈ 615 µM) | 250 (≈ 615 µM) | 160 (≈ 393 µM) | 250 (≈ 615 µM) | > 500 | 250 (≈ 615 µM) | 160 (≈ 393 µM) | 250 (≈ 615 µM) | 160 (≈ 393 µM) | 160 (≈ 393 µM) | 250 (≈ 615 µM) | 250 (≈ 615 µM) | 250 (≈ 615 µM) | 250 (≈ 615 µM) | 250 (≈ 615 µM) | 250 (≈ 615 µM) | 160 (≈ 393 µM) | MFC (Candida albicans [30]): 250 µg/mL (≈ 615 µM); MFC (Candida albicans [31]): 250 µg/mL (≈ 615 µM); MFC (Candida albicans [32]): 160 µg/mL (≈ 393 µM); MFC (Candida albicans [33]): > 500 µg/mL; MFC (Candida albicans [35]): > 500 µg/mL |
